Measured values reported in patent US20250042905A1, “DIHYDROPYRROLO[3,4-C]PYRAZOLE DERIVATIVES AND THEIR USE IN DIAGNOSIS” (AC IMMUNE SA, priority 2021, published 2025).
pKi: −log10 of the molar value.

Target: T1, PD brain-derived alpha-synuclein aggregates (Homo sapiens, UniProt P37840)
T1 construct: PD brain-derived alpha-synuclein aggregates were spotted onto microarray slides; from tissue; host or cells: human Parkinson's disease patient brain
Test: Micro-radiobinding competition assay for the determination of binding affinity
Settings: for inhibition at 0.1 µM / Competition at 100 nM (%): non-radiolabelled example compound at 100 nM; for inhibition at 0.1 µM / inhibition at 1 µM / Competition at 100 nM (%) / Competition at 1 μM (%): competition with tritiated reference alpha-synuclein ligand (20 nM or 30 nM), 100% = excess non-radiolabelled reference ligand; for inhibition at 0.1 µM: read-out: Competition at 100 nM (%); for inhibition at 1 µM / Competition at 1 μM (%): non-radiolabelled example compound at 1 μM; for inhibition at 1 µM: read-out: Competition at 1 μM (%); for pKi: concentration range 0.05 nM to 2 μM, nonlinear regression, one site specific binding model
Protocol: Micro-Radiobinding Competition Assay for the Determination of Binding Affinity
PD brain-derived alpha-synuclein aggregates were spotted onto microarray slides. The slides were incubated with tritiated reference alpha-synuclein ligand at 20 nM or 30 nM and the example compounds (non-radiolabelled) at 1 μM and 100 nM. In some cases, the non-radiolabelled example compounds were further assessed for a range of different concentrations, varying from 0.05 nM to 2 μM. After incubation, slides were washed and scanned by a real-time autoradiography system (BeaQuant, ai4R). Quantification of the signal was performed by using the Beamage image analysis software (ai4R). Non-specific signal was determined with an excess of non-radiolabelled reference alpha-synuclein ligand (2 μM) and specific binding was calculated by subtracting the non-specific signal from the total signal. Competition was calculated as percent, where 0% was defined as the specific binding in the presence of vehicle and 100% as the values obtained in the presence of excess of the non-radiolabelled reference alpha-synuclein ligand. Ki values were calculated in GraphPad Prism7 by applying a nonlinear regression curve fit using a one site, specific binding model. All measurements were performed with at least two technical replicates.
Table 4: Assessment of binding affinity by micro-radiobinding competition assay on human PD brain-derived alpha-synuclein aggregates.

inhibition at 0.1 µM | inhibition at 1 µM | pKi | SMILES | Competition at 100 nM (%) | Competition at 1 μM (%)
44% | 74% | – | Cc1ccc(N2Cc3nn(-c4cnc(N5CC(F)C5)cn4)cc3C2=O)cn1 [Example 19, 2-(5-(3-fluoroazetidin-1-yl)pyrazin-2-yl)-5-(6-methylpyridin-3-yl)-5,6-dihydropyrrolo[3,4-c]pyrazol-4(2H)-one] | – | –
38% | 74% | 6.37 | O=C1c2cn(-c3ccc(N4CC[C@@H](F)C4)nn3)nc2CN1c1cccnc1 [Example 20, (R)-2-(6-(3-fluoropyrrolidin-1-yl)pyridazin-3-yl)-5-(pyridin-3-yl)-5,6-dihydropyrrolo[3,4-c]pyrazol-4(2H)-one] | – | –
65% | 86% | – | Cn1cc(N2Cc3nn(-c4ccc(N5CC[C@@H](F)C5)nn4)cc3C2=O)cn1 [Example 21, (R)-2-(6-(3-fluoropyrrolidin-1-yl)pyridazin-3-yl)-5-(1-methyl-1H-pyrazol-4-yl)-5,6-dihydropyrrolo[3,4-c]pyrazol-4(2H)-one] | – | –
30% | – | – | O=C1c2cn(-c3ccc(N4CC[C@@H](F)C4)nn3)nc2CN1c1cncs1 [Example 22, (R)-2-(6-(3-fluoropyrrolidin-1-yl)pyridazin-3-yl)-5-(thiazol-5-yl)-5,6-dihydropyrrolo[3,4-c]pyrazol-4(2H)-one] | – | –
65% | 76% | 6.74 | COc1cncc(N2Cc3nn(-c4ccc(N5CC[C@@H](F)C5)nn4)cc3C2=O)c1 [Example 23, (R)-2-(6-(3-fluoropyrrolidin-1-yl)pyridazin-3-yl)-5-(5-methoxypyridin-3-yl)-5,6-dihydropyrrolo[3,4-c]pyrazol-4(2H)-one] | – | –
30% | 77% | 6.63 | O=C1c2cn(-c3ccc(N4CC[C@H](F)C4)nn3)nc2CN1c1cccnc1 [Example 24, (S)-2-(6-(3-fluoropyrrolidin-1-yl)pyridazin-3-yl)-5-(pyridin-3-yl)-5,6-dihydropyrrolo[3,4-c]pyrazol-4(2H)-one] | – | –
17% | 73% | 6.65 | O=C1c2cn(-c3ccc(N4CC[C@H](F)C4)nn3)nc2CN1c1cncs1 [Example 25, (S)-2-(6-(3-fluoropyrrolidin-1-yl)pyridazin-3-yl)-5-(thiazol-5-yl)-5,6-dihydropyrrolo[3,4-c]pyrazol-4(2H)-one] | – | –
8% | 76% | – | Cn1cc(N2Cc3nn(-c4ccc(N5CC[C@H](F)C5)nn4)cc3C2=O)cn1 [Example 26, (S)-2-(6-(3-fluoropyrrolidin-1-yl)pyridazin-3-yl)-5-(1-methyl-1H-pyrazol-4-yl)-5,6-dihydropyrrolo[3,4-c]pyrazol-4(2H)-one] | – | –
50% | 57% | – | COc1cncc(N2Cc3nn(-c4ccc(N5CC[C@H](F)C5)nn4)cc3C2=O)c1 [Example 27, (S)-2-(6-(3-fluoropyrrolidin-1-yl)pyridazin-3-yl)-5-(5-methoxypyridin-3-yl)-5,6-dihydropyrrolo[3,4-c]pyrazol-4(2H)-one] | – | –
17% | 51% | – | O=C1c2cn(-c3ccc(N4CCCC(F)CC4)nn3)nc2CN1c1cccnc1 (stereo not shown) [Example 28, 2-(6-(4-fluoroazepan-1-yl)pyridazin-3-yl)-5-(pyridin-3-yl)-5,6-dihydropyrrolo[3,4-c]pyrazol-4(2H)-one] | – | –
15% | 42% | – | Cc1ccc(N2Cc3nn(-c4ccc(N5CC[C@@H](F)C5)nn4)cc3C2=O)cn1 [Example 29, (R)-2-(6-(3-fluoropyrrolidin-1-yl)pyridazin-3-yl)-5-(6-methylpyridin-3-yl)-5,6-dihydropyrrolo[3,4-c]pyrazol-4(2H)-one] | – | –
4% | 39% | – | Cc1ccc(N2Cc3nn(-c4ccc(N5CC[C@H](F)C5)nn4)cc3C2=O)cn1 [Example 30, (S)-2-(6-(3-fluoropyrrolidin-1-yl)pyridazin-3-yl)-5-(6-methylpyridin-3-yl)-5,6-dihydropyrrolo[3,4-c]pyrazol-4(2H)-one] | – | –
71% | 86% | – | O=C1c2cn(-c3ccc(N4CC[C@@H](F)C4)nn3)nc2CN1c1ccns1 [Example 31, (R)-2-(6-(3-fluoropyrrolidin-1-yl)pyridazin-3-yl)-5-(isothiazol-5-yl)-5,6-dihydropyrrolo[3,4-c]pyrazol-4(2H)-one] | – | –
61% | 77% | – | O=C1c2cn(-c3ccc(N4CC[C@H](F)C4)nn3)nc2CN1c1ccns1 [Example 32, (S)-2-(6-(3-fluoropyrrolidin-1-yl)pyridazin-3-yl)-5-(isothiazol-5-yl)-5,6-dihydropyrrolo[3,4-c]pyrazol-4(2H)-one] | – | –
6% | 35% | – | O=C1c2cn(-c3ccc(N4CCCCC(F)C4)nn3)nc2CN1c1cccnc1 (stereo not shown) [Example 33, 2-(6-(3-fluoroazepan-1-yl)pyridazin-3-yl)-5-(pyridin-3-yl)-5,6-dihydropyrrolo[3,4-c]pyrazol-4(2H)-one] | – | –
29% | 34% | – | O=C1c2cn(-c3ccc(C(F)(F)F)nn3)nc2CN1c1cccnc1 [Example 35, 5-(pyridin-3-yl)-2-(6-(trifluoromethyl)pyridazin-3-yl)-5,6-dihydropyrrolo[3,4-c]pyrazol-4(2H)-one] | – | –
– | – | – | O=C1c2cn(-c3cnc(N4CC[C@H](F)C4)nc3)nc2CN1c1cccnc1 [Example 36, 2-2-[(3S)-3-fluoropyrrolidin-1-yl]pyrimidin-5-yl-5-(pyridin-3-yl)-2H,4H,5H,6H-pyrrolo[3,4-c]pyrazol-4-one] | 37% | 64%

SMILES | inhibition at 0.1 µM | inhibition at 1 µM | pKi | Competition at 100 nM (%) | Competition at 1 μM (%)
Cl.O=C1c2cn(-c3cnc(N4CC[C@@H](F)C4)nc3)nc2CN1c1cccnc1 [Example 37, 2-2-[(3R)-3-fluoropyrrolidin-1-yl]pyrimidin-5-yl-5-(pyridin-3-yl)-2H,4H,5H,6H-pyrrolo[3,4-c]pyrazol-4-one hydrochloride] | – | – | 6.45 | 32% | 78%
